A word on the AC50: it is the concentration giving half of the maximal activity seen. Low readings indicate activity at low concentration, high ones activity only at high concentration.

The structures appear in SMILES notation.

The assay addresses PKM2 (Homo sapiens, UniProt P14618). Kind of assay: PKM2 Assay. In kind it is biochemical. Particulars: activation of PKM2; Tables 1-4. The method, then: • PKM2 stock enzyme solution was diluted in Reaction Buffer • 2 μL of compound was added into each well first, and then 180 μL of the Reaction Mix was added. • Reaction mixture with compound (without ADP) was incubated for 30 minutes at 4° C. • Plates were re-equilibrated to room temperature prior to adding 20 μL ADP to initiate the reaction. • Reaction progress was measured as changes in absorbance at 340 nm wavelength at room temperature (25° C.) Reaction Mix:
PKM2 (50 ng/well), ADP (0.7 mM), PEP (0.15 mM), NADH (180 μM), LDH (2 units) in Reaction Buffer

Sequence of PKM2 (P14618 whole entry): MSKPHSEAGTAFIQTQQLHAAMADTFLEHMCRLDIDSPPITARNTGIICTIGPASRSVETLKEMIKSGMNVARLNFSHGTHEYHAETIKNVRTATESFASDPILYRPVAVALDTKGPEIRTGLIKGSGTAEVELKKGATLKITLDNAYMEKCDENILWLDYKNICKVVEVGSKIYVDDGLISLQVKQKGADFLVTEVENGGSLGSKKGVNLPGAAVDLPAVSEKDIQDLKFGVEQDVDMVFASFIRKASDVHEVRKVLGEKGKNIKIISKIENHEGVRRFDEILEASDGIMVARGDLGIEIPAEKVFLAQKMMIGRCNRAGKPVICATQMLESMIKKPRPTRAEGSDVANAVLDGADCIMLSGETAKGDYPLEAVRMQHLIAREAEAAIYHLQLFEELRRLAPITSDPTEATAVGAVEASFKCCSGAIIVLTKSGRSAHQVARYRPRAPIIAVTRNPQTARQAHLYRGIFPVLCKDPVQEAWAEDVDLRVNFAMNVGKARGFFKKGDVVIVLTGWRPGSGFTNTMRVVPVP

Turning to `Cc1cc(NS(=O)(=O)c2ccc3c(c2)N(C)C(=O)OC3)ccc1F`, the AC50 is < 100 nM.

Turning to `CN1C(=O)OCc2ccc(S(=O)(=O)Nc3ccc(F)c(Cl)c3)cc21`, the AC50 is < 100 nM.

`CN1C(=O)OCc2cc(S(=O)(=O)Nc3ccc(F)c(Cl)c3)ccc21` came in with a half-maximal activity concentration (AC50) of 100 to 500 nM.

For `Cc1cc(NS(=O)(=O)c2ccc3c(c2)COC(=O)N3C)ccc1F`, the AC50 lay in the range of 100 to 500 nM.

Take `CN1Cc2cc(S(=O)(=O)Nc3ccc(F)c(Cl)c3)ccc2OC1=O`: the AC50 is 100 to 500 nM.

`Cc1cc(NS(=O)(=O)c2ccc3c(c2)CN(C)C(=O)O3)ccc1F` displayed an AC50 of 100 to 500 nM.

As to `O=C1Oc2ccc(S(=O)(=O)Nc3ccc(F)c(Cl)c3)cc2CN1Cc1ccccc1`, the AC50 is > 500 nM.

In the case of `Cc1cc(C)cc(NS(=O)(=O)c2ccc3c(c2)NC(=O)CO3)c1`, the half-maximal activity concentration (AC50) was > 500 nM.

Turning to `O=C1COc2ccc(S(=O)(=O)Nc3ccc(F)cc3)cc2N1`, the AC50 was > 500 nM.

Turning to `O=C1COc2ccc(S(=O)(=O)Nc3ccc4c(c3)OCCO4)cc2N1`, the AC50 is > 500 nM.

For the compound `COc1ccc(NS(=O)(=O)c2ccc3c(c2)NC(=O)CO3)cc1`, the AC50 was > 500 nM.

In the case of `CN1C(=O)COc2ccc(S(=O)(=O)Nc3ccc4c(c3)OCCO4)cc21`, the AC50 was > 500 nM.

For the compound `Cc1cc(C)cc(NS(=O)(=O)c2ccc3c(c2)N(C)C(=O)CO3)c1`, the AC50 is < 100 nM.

As to `CN1C(=O)COc2ccc(S(=O)(=O)Nc3ccc(F)cc3)cc21`, the AC50 is > 500 nM.

Take `COc1ccc(NS(=O)(=O)c2ccc3c(c2)N(C)C(=O)CO3)cc1`: the AC50 is > 500 nM.

On to `Cc1cc(NS(=O)(=O)c2ccc3c(c2)N(C)C(=O)CO3)ccc1F`, for which the AC50 was < 100 nM.

With `CN1C(=O)COc2ccc(S(=O)(=O)Nc3ccc(F)c(Cl)c3)cc21`, the half-maximal activity concentration (AC50) is < 100 nM.

For `CN1C(=O)COc2ccc(S(=O)(=O)Nc3cccc(Cl)c3)cc21`, the AC50 is < 100 nM.

As to `CN1C(=O)COc2ccc(S(=O)(=O)Nc3ccc4c(c3)OCO4)cc21`, the AC50 was < 100 nM.

Regarding `CN1CC(=O)Oc2ccc(S(=O)(=O)Nc3cccc(Cl)c3)cc21`, the AC50 is < 100 nM.

For the compound `Cc1cc(NS(=O)(=O)c2ccc3c(c2)N(C)CC(=O)O3)ccc1F`, the AC50 was < 100 nM.

With `CN1CC(=O)Oc2ccc(S(=O)(=O)Nc3ccc(F)c(Cl)c3)cc21`, the AC50 was < 100 nM.

The record behind these values is patent publication US10087169B2, “Bicyclic PKM2 activators” (Agios Pharmaceuticals, Inc., priority 2010, dated 2018).
